# Measurements as given in BindingDB's records for doi:10.1021/jm3004174 (Taiho Pharmaceutical, 2012).
# Test: Inhibition of dUTPase in human HeLa S3 cells assessed as potentiation of 1 uM FdUrd-induced decrease in cell density incubated for 24 hrs by crystal violet assay
row,Structure (SMILES),EC50
1,CC[C@@](O)(Cn1nncc1CCCCn1ccc(=O)[nH]c1=O)c1ccc(F)c(OCC2CC2)c1,0.07 µM
2,CC[C@@H](Cn1nncc1CCCCn1ccc(=O)[nH]c1=O)c1cccc(OCC2CC2)c1,0.05 µM
3,O=c1ccn(CCCCc2cnnn2CCc2cccc(OCC3CC3)c2)c(=O)[nH]1,0.26 µM
4,O=c1ccn(CCCc2cnnn2CC(c2ccccc2)c2ccccc2)c(=O)[nH]1,1.1 µM
